Source: patent EP4800015A1, “AZABICYCLO DERIVATIVE AND PREPARATION METHOD THEREFOR, AND USE” (Zhejiang Hisun Pharmaceutical Co., Ltd., priority 2023, dated 2025)

molecular target: T1, recombinant human WRN (Homo sapiens, UniProt Q14191); experiment: Inhibition of WRN enzyme activity (ATPase), ADP-Glo Kinase Assay; format: biochemical; conditions: WRN protein 5 nM, Flap 0.1 nM, ATP 30 µM
T1 construct: purchased BPS 101264
Excerpt: The following method was used to determine the degree of inhibition of recombinant human WRN ATPase activity by the compounds of the present disclosure in vitro. In this method, ADP-Glo™ Kinase Assay kit (catalog No. V9102) from Promega was used. Detailed experimental procedures can be found in the kit manual.
The experimental procedure was briefly described as follows: test compounds were first dissolved in DMSO to prepare stock solutions, followed by serial dilution using reaction buffer (30 mM Tris, pH 7.5, 2 mM MgCl2, 50 mM NaCl, 0.02% BSA, 0.1% Pluronic F127), with final concentrations of test compounds in the reaction system ranging from 1000 nM to 0.004 nM; WRN protein (purchased from BPS, catalog No. 101264), substrate 5-flap oligonucleotide (Flap26) (synthesized by Shanghai Generay Biotech Co., Ltd., sequence 5'-[…]-3'), and ATP working solution (from ADP-Glo™ Kinase Assay kit component V915A) were prepared using reaction buffer. Reactions were performed in 384-well microplates. At first the compounds and recombinant human WRN protein (final concentration 5 nM) were added to the wells and the plate was incubated at room temperature for 15 minutes, then Flap solution (final concentration 0.1 nM) and ATP solution (final concentration 30 µM) were added to the reaction solution and the plate was incubated at room temperature for 10 minutes. Subsequently, 5 µL of ADP-Glo Reagent was added to the reaction system and incubated at room temperature for 40 minutes. Then 10 µL of Kinase Detection Reagent was added to the reaction system and incubated at room temperature for 30 minutes. After the incubation was completed, chemiluminescence intensity values of each well were measured using a microplate reader in luminescence mode. The percentage inhibition of the compounds at each concentration was calculated by comparison with the luminescence intensity values of the control group (0.1% DMSO), and IC50 values of compounds were obtained by nonlinear regression analysis of compound concentration logarithm-inhibition rate using GraphPad Prism 9 software, as shown in Table 1.
The IC50 value results of the compounds of the present disclosure are expressed as AA and A, respectively as follows: "AA" indicates IC50 ≤ 1 nM; "A" indicates 1 nM < IC50 ≤ 100 nM. Table 1 IC50 of the compounds of the present disclosure for inhibiting WRN enzyme activity (ATPase)

T1 sequence (Q14191 whole entry): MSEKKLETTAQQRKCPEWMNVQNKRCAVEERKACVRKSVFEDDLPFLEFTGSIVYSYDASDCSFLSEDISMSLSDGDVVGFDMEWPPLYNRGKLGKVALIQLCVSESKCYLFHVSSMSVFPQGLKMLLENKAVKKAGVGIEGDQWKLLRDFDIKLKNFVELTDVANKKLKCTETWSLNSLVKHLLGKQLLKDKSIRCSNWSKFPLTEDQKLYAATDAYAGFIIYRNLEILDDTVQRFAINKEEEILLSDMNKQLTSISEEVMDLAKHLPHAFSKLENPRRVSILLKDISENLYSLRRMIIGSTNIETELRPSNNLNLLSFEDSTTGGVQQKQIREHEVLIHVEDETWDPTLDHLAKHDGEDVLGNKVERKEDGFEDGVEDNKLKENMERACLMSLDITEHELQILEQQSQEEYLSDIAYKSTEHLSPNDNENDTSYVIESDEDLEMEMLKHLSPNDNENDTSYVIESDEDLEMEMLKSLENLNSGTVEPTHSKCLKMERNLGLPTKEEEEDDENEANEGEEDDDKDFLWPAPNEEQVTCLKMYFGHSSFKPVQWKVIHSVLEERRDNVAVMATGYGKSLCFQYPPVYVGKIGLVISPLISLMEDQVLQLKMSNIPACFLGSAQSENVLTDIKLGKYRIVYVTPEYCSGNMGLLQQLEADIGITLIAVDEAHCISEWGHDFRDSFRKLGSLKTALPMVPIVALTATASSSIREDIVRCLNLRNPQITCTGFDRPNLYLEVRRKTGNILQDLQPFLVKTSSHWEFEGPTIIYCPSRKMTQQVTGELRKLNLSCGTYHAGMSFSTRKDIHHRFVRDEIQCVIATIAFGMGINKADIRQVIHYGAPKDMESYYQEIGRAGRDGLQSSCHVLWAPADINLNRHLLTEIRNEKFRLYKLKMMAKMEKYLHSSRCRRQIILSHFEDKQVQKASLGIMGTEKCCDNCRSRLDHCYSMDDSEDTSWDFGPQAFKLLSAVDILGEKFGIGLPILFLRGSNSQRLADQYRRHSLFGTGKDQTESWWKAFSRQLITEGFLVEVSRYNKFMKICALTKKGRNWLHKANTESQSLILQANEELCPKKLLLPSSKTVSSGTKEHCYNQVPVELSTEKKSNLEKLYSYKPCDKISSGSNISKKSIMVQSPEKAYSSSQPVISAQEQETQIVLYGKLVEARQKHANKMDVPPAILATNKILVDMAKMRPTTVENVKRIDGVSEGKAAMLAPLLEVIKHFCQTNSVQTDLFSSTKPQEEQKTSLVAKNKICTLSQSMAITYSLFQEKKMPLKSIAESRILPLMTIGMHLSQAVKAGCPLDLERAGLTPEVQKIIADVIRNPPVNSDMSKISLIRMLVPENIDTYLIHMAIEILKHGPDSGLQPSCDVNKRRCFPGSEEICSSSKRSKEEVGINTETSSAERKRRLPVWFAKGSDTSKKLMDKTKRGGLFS

In the case of `C=C(c1ccc(OC)cc1)c1nc2n(CC(=O)Nc3ccc(C(F)(F)F)cc3Cl)c(CC)c(N3CCN(C(=O)c4ncnc(C)c4O)CC3)c(=O)n2n1` [Example 83, N-(2-chloro-4-(trifluoromethyl)phenyl)-2-(5-ethyl-6-(4-(5-hydroxy-6-methylpyrimidine-4-carbonyl)piperazin-1-yl)-2-(1-(4-methoxyphenyl)vinyl)-7-oxo-[1,2,4]triazolo[1,5-a]pyrimidin-4(7H)-yl) acetamide], the IC50 is reported as 1 to 100 nM.

same assay, conditions: WRN protein 5 nM, Flap 0.1 nM, ATP 30 µM; read-out: IC50

`CCc1c(N2CCN(C(=O)c3ncnc(C)c3O)CC2)c(=O)n2nc(-c3cccc4occc34)nc2n1CC(=O)Nc1ccc(C(F)(F)F)cc1Cl` [Example 124, 2-(2-(benzofuran-4-yl)-5-ethyl-6-(4-(5-hydroxy-6-methylpyrimidine-4-carbonyl)piperazin-1-yl)-7-oxo-[1,2,4]triazolo[1,5-a]pyrimidin-4(7H)-yl)-N-(2-chloro-4-(trifluoromethyl)phenyl)acetamide] and `CCc1c(N2CCCN(C(=O)c3ncnc(C)c3O)CC2)c(=O)n2nc(-c3ccc4c(c3)CCO4)nc2n1CC(=O)Nc1ccc(C(F)(F)F)cc1Cl` [Example 107, N-(2-chloro-4-(trifluoromethyl)phenyl)-2-(2-(2,3-dihydrobenzofuran-5-yl)-5-ethyl-6-(4-(5-hydroxy-6-methylpyrimidine-4-carbonyl)-1,4-diazepan-1-yl)-7-oxo-[1,2,4]triazolo[1,5-a]pyrimidin-4(7 H)-yl)acetamide] fall in the same range of IC50: 1 to 100 nM for the first, 1 to 100 nM for the second.

`CCc1c(N2CCN(C(=O)c3ncnc(C)c3O)CC2)c(=O)n2nc(N3CC4(CCOCC4)C3)nc2n1CC(=O)Nc1ccc(C(F)(F)F)cc1Cl` [Example 8, N-(2-chloro-4-(trifluoromethyl)phenyl)-2-(5-ethyl-6-(4-(5-hydroxy-6-methylpyrimidine-4-carbonyl)piperazin-1-yl)-7-oxo-2-(7-oxa-2-azaspiro[3.5]nonan-2-yl)-[1,2,4]triazolo[1,5-a]pyrimidin-4(7 H)-yl)acetamide] and `CCc1c(N2CCN(C(=O)c3ncnc(C)c3O)CC2)c(=O)n2nc(N3CCC3)nc2n1CC(=O)Nc1ccc(C(F)(F)F)cc1Cl` [Example 7, 2-(2-(azetidin-1-yl)-5-ethyl-6-(4-(5-hydroxy-6-methylpyrimidine-4-carbonyl)piperazin-1-yl)-7-oxo-[1,2,4]triazolo[1,5-a]pyrimidin-4(7H)-yl)-N-(2-chloro-4-(trifluoromethyl)phenyl)acetamide] fall in the same range of IC50: 1 to 100 nM for the first, 1 to 100 nM for the second.

`CCc1c(N2CCN(C(=O)c3ncccc3O)CC2)c(=O)n2nc(C3=CCCCCC3)nc2n1CC(=O)Nc1ccc(S(F)(F)(F)(F)F)cc1` [Example 46, 2-(2-(cyclohept-1-en-1-yl)-5-ethyl-6-(4-(3-hydroxypicolinoyl)piperazin-1-yl)-7-oxo-[1,2,4]triazolo[1,5-a]pyrimidin-4(7H)-yl)-N-(4-(pentafluoro-λ^6-sulfaneyl)phenyl)acetamide] and `CCc1c(N2CCN(C(=O)c3ncccc3O)CC2)c(=O)n2nc(C3=CCCCCC3)nc2n1CC(=O)Nc1ccc(C(F)(F)F)cc1Cl` [Example 45, N-(2-chloro-4-(trifluoromethyl)phenyl)-2-(2-(cyclohept-1-en-1-yl)-5-ethyl-6-(4-(3-hydroxypicolinoyl)piperazin-1-yl)-7-oxo-[1,2,4]triazolo[1,5-a]pyrimidin-4(7H)-yl)acetamide] fall in the same range of IC50: 1 to 100 nM for the first, 1 to 100 nM for the second.

`CCc1c(N2CCN(C(=O)c3ncnc(C)c3O)CC2)c(=O)n2nc(C=C3CC(C(N)=O)C3)nc2n1CC(=O)Nc1ccc(C(F)(F)F)cc1Cl` (stereo not drawn) [Example 116, 3-((4-(2-((2-chloro-4-(trifluoromethyl)phenyl)amino)-2-oxoethyl)-5-ethyl-6-(4-(5-hydroxy-6-methylpyrimidine-4-carbonyl)piperazin-1-yl)-7-oxo-4,7-dihydro-[1,2,4]triazolo[1,5-a]pyrimidin-2-yl)methylene)cyclobutane-1-carboxamide] and `CCc1c(N2CCN(C(=O)c3ncnc(C)c3O)CC2)c(=O)n2nc(C3=CCC4(CC3)CC4)nc2n1CC(=O)Nc1ccc(C(F)(F)F)cc1Cl` [Example 64, N-(2-Chloro-4-(trifluoromethyl)phenyl)-2-(5-ethyl-6-(4-(5-hydroxy-6-methylpyrimidine-4-carbonyl)piperazin-1-yl)-7-oxo-2-(spiro[2.5]oct-5-en-6-yl)-[1,2,4]triazolo[1,5-a]pyrimidin-4(7H)-yl)ac etamide] fall in the same range of IC50: 1 to 100 nM for the first, 1 to 100 nM for the second.

First: CCc1c(N2CCN(C(=O)c3ccncc3O)CC2)c(=O)n2nc(C3=CCCCCC3)nc2n1CC(=O)Nc1ccc(C(F)(F)F)cc1C [Example 42, 2-(2-(cyclohept-1-en-1-yl)-5-ethyl-6-(4-(3-hydroxyisonicotinoyl)piperazin-1-yl)-7-oxo-[1,2,4]triazolo[1,5-a]pyrimidin-4(7H)-yl)-N-(2-methyl-4-(trifluoromethyl)phenyl)acetamide]
Second: CCc1c(N2CCN(C(=O)c3ccncc3O)CC2)c(=O)n2nc(C3=CCCCCC3)nc2n1CC(=O)Nc1ccc(C(F)(F)F)cc1Cl [Example 9, N-(2-chloro-4-(trifluoromethyl)phenyl)-2-(2-(cyclohept-1-en-1-yl)-5-ethyl-6-(4-(3-hydroxyisonic otinoyl)piperazin-1-yl)-7-oxo-[1,2,4]triazolo[1,5-a]pyrimidin-4(7H)-yl)acetamide]
The IC50 of the first is higher: 1 to 100 nM for the first, under 1 nM for the second.

`CCc1c(N2CCN(C(=O)c3ncnc(C)c3O)CC2)c(=O)n2nc(-c3ccc4c(c3)OCC4)nc2n1CC(=O)Nc1ccc(S(F)(F)(F)(F)F)cc1` [Example 58, 2-(2-(2,3-dihydrobenzofuran-6-yl)-5-ethyl-6-(4-(5-hydroxy-6-methylpyrimidine-4-carbonyl)piperazin-1-yl)-7-oxo-[1,2,4]triazolo[1,5-a]pyrimidin-4(7H)-yl)-N-(4-(pentafluoro-λ^6-sulfaneyl)phenyl)acetamide] and `[2H]C([2H])([2H])Sc1ccc(NC(=O)Cn2c(CC)c(N3CCN(C(=O)c4ncnc(C)c4O)CC3)c(=O)n3nc(C4=CC5CC5C4)nc23)cc1` (stereo not drawn) [Example 181, 2-(2-(Bicyclo[3.1.0]hex-2-en-3-yl)-5-ethyl-6-(4-(5-hydroxy-6-methylpyrimidine-4-carbonyl)piperazin-1-yl)-7-oxo-[1,2,4]triazolo[1,5-a]pyrimidin-4(7H)-yl)-N-(4-((methyl-d3)thio)phenyl)acetamide] fall in the same range of IC50: 1 to 100 nM for the first, 1 to 100 nM for the second.

`CCc1c(N2CCN(C(=O)c3ncnc(C)c3O)CC2)c(=O)n2nc(C3=CC4C/C(=N/OC)CC4C3)nc2n1CC(=O)Nc1ccc(C(F)(F)F)cc1Cl` (stereo not drawn) [Example 122, (E)-N-(2-chloro-4-(trifluoromethyl)phenyl)-2-(5-ethyl-6-(4-(5-hydroxy-6-methylpyrimidine-4-carbonyl)piperazin-1-yl)-2-(5-(methoxyimino)-1,3a,4,5,6,6a-hexahydropentalen-2-yl)-7-oxo-[1,2,4]triazolo[1,5-a]pyrimidin-4(7H)-yl)acetamide] and `CCc1c(N2CCN(C(=O)c3ncccc3O)CC2)c(=O)n2nc(C3=CC4CCC3C4)nc2n1CC(=O)Nc1ccc(C(F)(F)F)cc1Cl` (stereo not drawn) [Example 41, 2-(2-(bicyclo[2.2.1]hept-2-en-2-yl)-5-ethyl-6-(4-(3-hydroxypicolinoyl)piperazin-1-yl)-7-oxo-[1,2,4]triazolo[1,5-a]pyrimidin-4(7H)-yl)-N-(2-chloro-4-(trifluoromethyl)phenyl)acetamide] fall in the same range of IC50: 1 to 100 nM for the first, 1 to 100 nM for the second.

`CCc1c(N2CCN(C(=O)c3ncccc3O)CC2)c(=O)n2nc(C3=Cc4ccccc4C3)nc2n1CC(=O)Nc1ccc(C(F)(F)F)cc1Cl` [Example 72, N-(2-chloro-4-(trifluoromethyl)phenyl)-2-(5-ethyl-6-(4-(3-hydroxypicolinoyl)piperazin-1-yl)-2-(1H-inden-2-yl)-7-oxo-[1,2,4]triazolo[1,5-a]pyrimidin-4(7H)-yl)acetamide] and `CCc1c(N2CCN(C(=O)c3ccncc3O)CC2)c(=O)n2nc(C3=CCCCCC3)nc2n1CC(=O)Nc1ccc(C(F)(F)F)cc1F` [Example 44, 2-(2-(cyclohept-1-en-1-yl)-5-ethyl-6-(4-(3-hydroxyisonicotinoyl)piperazin-1-yl)-7-oxo-[1,2,4]triazolo[1,5-a]pyrimidin-4(7H)-yl)-N-(2-fluoro-4-(trifluoromethyl)phenyl)acetamide] fall in the same range of IC50: 1 to 100 nM for the first, 1 to 100 nM for the second.

In the case of `CCc1c(N2CCN(C(=O)c3ccncc3O)CC2)c(=O)n2nc(C3=CCCCCC3)nc2n1CC(=O)Nc1ccc(C(C)(C)C)cc1` [Example 24, N-(4-(tert-butyl)phenyl)-2-(2-(cyclohept-1-en-1-yl)-5-ethyl-6-(4-(3-hydroxyisonicotinoyl)piperazin-1-yl)-7-oxo-[1,2,4]triazolo[1,5-a]pyrimidin-4(7H)-yl)acetamide], the IC50 is reported as 1 to 100 nM.
